Results from US20050020483A1, “Sigma ligands for neuronal regeneration and functional recovery” (priority 2003, published 2005).

Columns and labels:
[1] = test system: sigma-1 site compared to the sigma-2 site; conditions: (+) isomers of benzomorphan opiates; cited from earlier work
[2] = test system: SHR (spontaneous hypertensive) rats, stroke by MCA occlusion; experiment: Rotating pole or cylinder test after MCA occlusion (Example 1); assay type: in vivo, rat; conditions: 0.03-10 mg/kg s.c. or p.o. from two days after MCAO for 2-8 weeks; present-tense example
Excerpt: Male 3 months old SHR (spontaneous hypertensive) rats are used for induction of stroke by MCA occlusion. This is the preferred strain since most stroke patients are hypertensive. The animals are anesthetized with Methohexital and a small craniectomy is made above the zygmotic arch to expose the middle cerebral artery, which is occluded with a 10-0 monofilament nylon thread distal to the origin of the striatal branches. The rats are not intubated and no catheters are inserted. Following MCA occlusion a large and reproducible infarct is obtained, leading to a robust sensorimotor deficit. The animals are kept on a 6 hr light/18 h dark cycle with free access to food and water. At two days after the MCAO the rats are treated with the compound I, II, III, IV, V, VI, VII, VIII, or IX (0.03-10 mg/kg) s.c. or p.o. and a control group is given saline for 2-8 weeks. At 2, 4, 6 and 8 weeks animals are tested in the rotating pole or cylinder test
(§1) The cylinder test (modified from Schallert and Tillerson (Innovative models of CNS disease: from molecule to therapy. Clifton, N.J., Humana, 1999) is used to quantify the forelimb use for rearing on the cylinder wall. The rats are monitored as they move freely in a 20-cm-wide clear glass cylinder. Contacts made by each forepaw with the cylinder wall while rearing are scored by a blinded observer. A total of 20 contacts are recorded for each animal, and the number of impaired (left), both, and non-impaired forelimb contacts as percentage of total contacts is calculated. Baseline for rats is achieved by measuring the contacts made by each forepaw before MCAO.

[3] = test system: NMDA-induced toxicity and seizures; conditions: in vivo models; cited from earlier work
[4] = test system: rat primary neuronal cultures; conditions: cited from earlier work
[5] = test system: spontaneously hypertensive rats exposed to permanent middle artery occlusion (MCAO); experiment: Cylinder test for asymmetric forelimb use after permanent MCAO (Example 2); assay type: in vivo, rat; conditions: 0.3 mg/kg; all time points measured
Procedure: as §1
Forty three spontaneously hypertensive rats were exposed to permanent middle artery occlusion (MCAO), then divided into three treatment groups. […] At the start of treatment, and at several time points during the test, the rats were assessed for their performance in the cylinder test. […] The performance of the rats in the test was assessed one day before permanent MCAO, then at 14 days, 28 days and 59 days after permanent MCAO. The rats were monitored as they moved freely in a 20 cm-wide clear glass cylinder. Contacts made by each forepaw with the cylinder wall while rearing were scored by a blinded observer. […]

[6] = test system: cultured rat retinal neurons; conditions: cited from earlier work
[7] = test system: spontaneously hypertensive rats exposed to permanent middle artery occlusion (MCAO); experiment: Rotating pole test after permanent MCAO (Example 2); assay type: in vivo, rat; conditions: rotating pole score 0-6
Excerpt: A score of 6-0 is given for each direction:
6, the animal crosses the pole with no foot slips;
5, the animal crosses the pole with a few foot slips;
4, the animal crosses the pole, slipping 50% of the footsteps;
3, the animal crosses the pole with more than 50% foot slips;
2, the animal walks a bit and then rotates around the pole;
1, the animal rotates around the pole without crossing it;
0, the animal falls off the pole.
Thirty five spontaneously hypertensive rats were exposed to permanent middle artery occlusion (MCAO), then divided into three treatment groups. Starting at two days after occlusion and continuing daily until 28 days after occlusion, SA4503 was administered s.c. in doses of 0.3 mg/kg (12 rats) or 1.0 mg/kg (12 rats). In a control group (11 rats), vehicle only was administered. At the start of treatment, and at several time points during the test, the rats were assessed for their performance in the rotating pole model. This model is described in Example 1. It requires the rats to cross a horizontally suspended rotating pole having a length of 1 m. This task measures the sensory-motor performance of the animals. The animals' behaviour was recorded using a video camera and later analyzed and scored by a trained technician. The scoring ranges from 0 to 6, with 0 being very poor performance and 6 reflecting the performance of a healthy animal (without MCAO).

ischemia in gerbils = conditions: cited from earlier work
[8] = hydrohalide salts, in particular the hydrochloride salt; cited from earlier work

In the case of `CC(C)=CCN1CCC2(C)c3cc(O)ccc3CC1C2C` (single isomer, unassigned; (+)) [(+)pentazocine], the “affinity for the sigma-1 site compared to the sigma-2 site” value [1] is listed as “nearly two orders of magnitude higher affinity for the sigma-1 site”.
For `CCC(C/C=C/c1ccccc1)(c1ccccc1)N(C)CC1CC1` (single isomer, unassigned; (+)) [VI, (+)-N-(cyclopropylmethyl)-N-[1-ethyl-1,4-diphenyl-3(E)-butenyl]-N-methylamine], the “performance in the rotating pole test or the cylinder test versus control” value [2] was “perform better than the group 1 control animals”.
For `OC(CCCN1CCN(c2ncc(F)cn2)CC1)c1ccc(F)cc1` (stereo not shown) [BMY-14802], the “protective effects against NMDA-induced toxicity and seizures” value (from here on “protective effects”) [3] is listed as “consistent with affording protective effects”.
In the case of `O=C(NC1CCN(Cc2ccccc2)CC1)c1ccc(I)cc1` [II, N-(N-benzylpiperidin-4-yl)-4-iodobenzaminde], the “performance in the rotating pole test or the cylinder test versus control” value [2] is reported as “perform better than the group 1 control animals”.
For `O=C(OCCN1CCOCC1)C1(c2ccccc2)CCCCC1` [III, 1-phenylcyclohexane-1-carboxylic acid-2-morpholinoethyl ester], the “performance in the rotating pole test or the cylinder test versus control” value [2] was “perform better than the group 1 control animals”.
With `COc1ccc(CN2CCN(Cc3ccccc3)CC2)c(O)c1OC` [IX, N-benzyl-N′-(2-hydroxy-3,4-dimethoxybenzyl)-piperazine] the “performance in the rotating pole test or the cylinder test versus control” value [2] was “perform better than the group 1 control animals”.
In the case of `COc1ccc(CCN2CCN(CCCc3ccccc3)CC2)cc1OC` [SA4503, 1-(3,4-dimethoxyphenethyl)-4-(3-phenylpropyl) piperazine], the “suppression of hypoxia/hypoglycemia-induced neurotoxicity” value [4] is listed as “significantly suppress”, the “performance in the rotating pole test or the cylinder test versus control” value [2] is listed as “perform better than the group 1 control animals” and the “asymmetry of paw usage” value [5] is listed as “reduced to pre-MCAO levels”. The “activity against glutamate neurotoxicity” value [6] was “active”, the “total average score at day 30” value ([7]; 0.3 mg/kg s.c.) was 5.2 and the “Average Increase in Score at Day 30 (SEM)” value ([7]; 0.3 mg/kg s.c. daily from day 2 to day 28 after MCAO) was 3.5 (SEM 0.4) (p < 0.05). The “Average Increase in Score at Day 30 (SEM)” value ([7]; 1.0 mg/kg s.c. daily from day 2 to day 28 after MCAO) was 3.67 (SEM 0.48) (p < 0.05).
In the case of `COc1cccc2c1CCC(=O)N2CCCN1CCN(c2cccc(Cl)c2)CC1` [VII, 1-[3-[4-(3-chlorophenyl)piperazin-1-yl]propyl]-5-methoxy-1,2,3,4-tetrahydroquinolin-2-one], the “performance in the rotating pole test or the cylinder test versus control” value [2] is reported as “perform better than the group 1 control animals”.
In the case of `CN(CCc1ccc(Cl)c(Cl)c1)[C@H]1CCCC[C@H]1N1CCCC1` [VIII, (−)-(1S, 2R)-N-[2-(3,4-dichlorophenyl)ethyl]-N-methyl-2-(pyrrolidin-1-yl) cyclohexylamine], the “performance in the rotating pole test or the cylinder test versus control” value [2] is reported as “perform better than the group 1 control animals”.
In the case of `CCN(CC)CCOC(=O)C1(c2ccccc2)CCCC1` [caramiphen], the “protective effects” value [3] is listed as “consistent with affording protective effects”.
With `COCCCC/C(=N\OCCN)c1ccc(C(F)(F)F)cc1` [fluvoxamine, 5-methoxy-4′-(trifluoromethyl)valerophenone O-(2-aminoethyl)oxime] the “performance in the rotating pole test or the cylinder test versus control” value [2] was “perform better than the group 1 control animals”.
For `O=C(CCCN1CCC(O)(c2ccc(Cl)cc2)CC1)c1ccc(F)cc1` [haloperidol], the “protective effects” value [3] is given as “consistent with affording protective effects”.
In the case of `OCCN1CCN(CCCN2c3ccccc3C=Cc3ccccc32)CC1` [opipramol], the protection against ischemia (ischemia in gerbils) is given as “protect against ischemia”.
In the case of `Fc1ccc(-n2cc(CCCCN3CCC4(CC3)OCc3ccccc34)c3ccccc32)cc1` [siramesine, 1′-[4-[1-(4-fluorophenyl)-1H-indol-3-yl]-1-butyl] spiro [isobenzofuran-1(3H),4′-piperidine]], the “performance in the rotating pole test or the cylinder test versus control” value [2] is given as “perform better than the group 1 control animals” and the bioavailability [8] is given as “good bioavailability”.
In the case of (+)SKF 10,047, the “affinity for the sigma-1 site compared to the sigma-2 site” value [1] is given as “nearly two orders of magnitude higher affinity for the sigma-1 site”.
